# According to patent publication US4808589A, “Pyrimidone derivatives” (Smith Kline & French Laboratories Limited, priority 1982, dated 1989):
# Test system: histamine H2 -receptors
# Assay: inhibition of histamine-stimulated secretion of gastric acid from lumen-perfused stomachs of rats anaesthetised with urethane
# Type: in vivo, rat
# Details: i.v., lumen-perfused stomach of urethane-anaesthetised rats
row,SMILES,dose causing 50% inhibition of maximal acid secretion
1,"Cc1ccc(Cc2cnc(CCSCc3csc(NC(=N)N)n3)[nH]c2=O)cn1.Cl.Cl.Cl.O [Example 1, 2-[2-(2-guanidino-4-thiazolylmethylthio)ethyl]-5-(6-methyl-3-pyridylmethyl)-4-pyrimidone trihydrochloride hydrate]",less than 1 micromole kg^-1
2,"Cc1ccc(Cc2cnc(CCSCc3ccc(CN(C)C)o3)[nH]c2=O)cn1 [Example 2, 2-[2-(5-dimethylaminomethyl-2-furanylmethylthio)ethyl]-5-(6-methyl-3-pyridyl-ylmethyl)-4-pyrimidone]",less than 1 micromole kg^-1
